This is an account of results in EP3502234B1, “ANAEROBIC AMMONIUM OXIDATION WITH PLANKTONIC CELLS IN A CONTINUOUS OR SEMI-CONTINUOUS STIRRED-TANK REACTOR” (priority 2017, dated 2019).

Where only a bound is given, the exact number is not on record here.

For assay [1], the system named is anammox activity of reactor effluent. Briefly: Incubations of reactor effluent with effectors; anammox activity from headspace gas production rate. The format is cell-based, "Ca. Kuenenia stuttgartiensis". The note with it: for IC50: 30°C. The method, then:
60 mL nitrogen-flushed glass bottles were anoxically filled with 50 mL reactor effluent and closed with butyl rubber septa and aluminum crimp caps. Effectors were anoxically added with sterile syringes through the septa or directly added to the bottles as powder. Except for the experiment in which nitrite was varied, 3 mM nitrite was added at time 0. Each bottle was directly connected to a MPX5100DP pressure sensor via a 0.41 mm Luer Lock needle. All sensors were electrically connected to a LabJack converter for data reading and storage. Pressure sensors were read every 3 seconds. In total, twelve such bottles were set up for each experiment, allowing the simultaneous testing of five different effector concentrations in duplicate plus two bottles as negative controls without effector.
Experiments were incubated for 24 hours after which 3 mL air was injected into each bottle for calibration of the pressure sensor readings. Gas production rates were calculated as mL per day across 1,000 consecutive data points (3,000 seconds). […] The same time frame was chosen for all twelve bottles in one experiment to calculate anammox activities from the slopes.
For that the reactor effluent was incubated in closed bottles and monitored the pressure build-up in the headspace over time. […] Legend: the number before the dash indicates the chloramphenicol concentration in mg L^-1, the number behind the dash indicates the number of the replicate. (A) Gas production; (B) Gas production rate calculated in a window of 1,000 consecutive data points (equivalent to 3,000 seconds).

The subject of assay [2] is anammox activity of "Ca. Kuenenia stuttgartiensis ". The note with it: 1 g L^-1 chloramphenicol; cited from earlier work.
Assay [3] has the same test system. The note with it: 20 mg L^-1 chloramphenicol, sequencing batch reactor, after 4 days; cited from earlier work.
The subject of assay [4] is "Ca. Kuenenia stuttgartiensis". The note with it: previous reports; cited from earlier work.
A further assay relates to anammox activity. In words: Semi-CSTR reactor operation under critical conditions (pulse addition, reactor collapse). The format is cell-based, "Ca. Kuenenia stuttgartiensis". The note with it: pulse of 0.2 mM Na2S added to the reactor. The method, then: The reactor effluent was collected in anoxic 2-liter bottles and stored in the dark at 4°C to be used later for inhibitor tests (see below) or as inoculum when the reactor collapsed. During one-year operation under experimental conditions, the reactor intentionally collapsed three times under three different critical conditions: 1) after the reactor was incubated for 24 h at 38.6°C without feeding nitrite, 2) after a pulse of 0.2 mM Na2S was added, and 3) after a pulse of 65 µM FeCl2 was added. […] After such reactor collapses, the reactor could be reproducibly regenerated with the stored eluent bottles. The activity in the effluent bottles was recovered, as judged from pressure production rates, within only 2 days when a bottle was warmed up to room temperature, spiked with 3 mM nitrite and incubated at 30°C. Effluent could be stored at 4°C for at least three months without startup delay.

The mark [5] stands for this setting: reactor effluent, gas production rate normalized to controls without effector.

Consider `[Cl-].[Na+]` [NaCl], for which the results for the inhibition in assay [1] (270 mM salt) and in assay [1] (salt concentrations up to 120 mM) were 75% and “No apparent inhibition”, respectively. Further, the “salt concentrations that start to inhibit anammox activity” value in assay [1] (reactor effluent) fell in the range of 120 to 270 mM.

`O=C(N[C@H](CO)[C@H](O)c1ccc([N+](=O)[O-])cc1)C(Cl)Cl` [chloramphenicol] came in with an inhibition at 30 µg/mL in assay [1] (chloramphenicol 30 mg L^-1) of 57%. The IC50 in assay [1] (reactor effluent, 3 mM nitrite) was found to be 19 µg/mL. Moreover, the inhibition result in assay [2] is listed as “no apparent inhibition”. Moreover, in assay [3], the “drop in reactor efficiency” value is reported as 25% and the “drop in specific anammox activity” value is on record as 75%.

`CN(C)c1ccc2nc3ccc(=[N+](C)C)cc-3sc2c1` [methylene blue] gave an inhibition in assay [1] (100 µg L^-1 methylene blue) of 86%. Besides, the “inhibition of anammox activity” value in assay [1] (methylene blue 10 µg L^-1) is “no apparent inhibition”. Besides, the midpoint of inhibition in assay [1] (reactor effluent, 3 mM nitrite), the IC50, lay at 0.053 µg/mL.

As to `O=N[O-].[Na+]` [nitrite, NaNO2], the inhibition in assay [1] (nitrite at 6 mM) is on record as 24%; in assay [1] (nitrite at 6 mM, as worded in the discussion), “severe inhibition”. In addition, in assay [1] (setting [5]), the 50% inhibitory concentration (IC50) is 9.6 mM. For the same compound, the tolerant to nitrite in assay [4] is 13 to 25 mM.

`[Na+].[Na+].[S-2]` [sulfide, Na2S] displayed a half-inhibitory concentration (IC50) in assay [1] (reactor effluent, 3 mM nitrite) of 0.005 mM. In addition, the “inhibition of anammox activity” value in assay [1] (sulfide at 5 µM) is given as “severely inhibited”. The “effect on the reactor” value with anammox activity is recorded as “complete loss of the anammox activity”.

In the case of phosphate, the “anammox activity higher than in the controls at 1.5 mM” value in assay [1] (6.5 mM phosphate) was found to be 11%. The compound further displayed an anammox activity preserved in assay [1] (highest tested concentration of 51.5 mM phosphate) of 65%. Also, the “increase of anammox activity” value in assay [1] (phosphate concentration increased from 1.5 mM to 3.5 mM) is reported as 16%. This compound showed an IC50 in assay [1] (setting [5]) greater than 51.5 mM.

In general, inhibition refers to how much of the control response was suppressed. By IC50 is commonly meant the concentration that inhibits the measured activity by half. Lower therefore signals higher potency.
